The subject of one data set is Staphylococcus aureus. Briefly: Antimicrobial activity against Staphylococcus aureus ATCC 29213 assessed as reduction in microbial growth. It counts as functional.
Data set [1] has as its system HEK293. Briefly: Cytotoxicity against human HEK293 cells assessed as reduction in cell viability at 128 uM relative to control. Conditions: hek293, 128 µM. In kind it is toxicity, cell-based.
Data set [2] deals with HEK293. Briefly: Cytotoxicity against human HEK293 cells assessed as reduction in cell viability at 1 to 128 uM relative to control. The conditions noted are these: hek293, 128 µM, dose 1-128 µM. In kind it is toxicity, cell-based.
A further data set relates to Escherichia coli. Briefly: Antimicrobial activity against Escherichia coli ATCC 25922 assessed as reduction in microbial growth. In kind it is functional.
Data set [3] can be described thus: Stability in human serum assessed as compound remaining measured after 1 hr by RP-HPLC analysis. It counts as ADME, cell-free. The conditions noted are these: read-out: Stability.
A short description of data set [4]: Hemolytic activity in human RBC assessed as hemolysis at 2 uM relative to control. It counts as toxicity, cell-based, Erythrocyte. The conditions noted are these: red blood cells, read-out: Activity.
Data set [5] is described as follows: Stability in human serum assessed as compound remaining measured after 3 hr by RP-HPLC analysis. The conditions noted are these: read-out: Stability. In kind it is ADME, cell-free.
The test system of a further data set is Candida albicans. Briefly: Antimicrobial activity against Candida albicans ATCC 90029 assessed as reduction in microbial growth. In kind it is functional.
A short description of data set [6]: Hemolytic activity in human RBC assessed as hemolysis at 128 uM relative to control. It counts as toxicity, cell-based, Erythrocyte. The conditions noted are these: red blood cells, read-out: Activity.
The nature of data set [7]: Hemolytic activity against human RBC assessed as concentration required to cause 10% hemolysis up to 256 uM relative to control. It counts as toxicity, cell-based. Conditions: erythrocyte.
Data set [8] relates to HEK293. Briefly: Cytotoxicity against human HEK293 cells assessed as reduction in cell viability up to 256 uM. It counts as toxicity, cell-based. Conditions: hek293, 256 µM.

Broadly, the MIC is the lowest concentration found to suppress growth. With H-KKLLKKLLRLLKVLLR-OH, the MIC in the data set with Staphylococcus aureus was determined as 0.75 µg/mL; in the data set on Escherichia coli, 25 µg/mL; with Candida albicans it was 3 µg/mL. Also, the Activity was 11% with HEK293 [1] and “Toxic” in the data set on HEK293 [2]. The remaining at 1 h in data set [3] was 60%. For the same compound, the hemolysis at 2 µM in data set [4] came to 90%. In addition, in [5], the remaining at 3 h was less than 9%.
For the compound H-KKLLRLLKVLLR-OH, the MIC amounted to 1.5 µg/mL with Staphylococcus aureus, 1.5 µg/mL with Escherichia coli and 50 µg/mL with Candida albicans. For the same compound, the hemolysis at 128 µM in [6] was determined as 35%. The Activity in the data set with HEK293 [1] is reported as 50%; in the data set with HEK293 [2], “Toxic”. In data set [3], the remaining at 1 h came out at 60%. In addition, the remaining at 3 h in data set [5] is less than 9%.
For the compound H-KLLKHKLLVTLA-OH, the results for the MIC with Staphylococcus aureus, in the data set on Escherichia coli and in the data set on Candida albicans were 50 µg/mL, 50 µg/mL and more than 200 µg/mL, respectively. The Activity result (in data set [7]; in the data set on HEK293 [8]) was “Non-Toxic” each time. Also, the remaining at 3 h in data set [5] was less than 9%.
As to `C[C@@H]1[C@H](O)[C@@H](C)/C=C/C=C/C=C/C=C/C=C/C=C/C=C/[C@H](O[C@@H]2O[C@H](C)[C@@H](O)[C@H](N)[C@@H]2O)C[C@@H]2O[C@](O)(C[C@@H](O)C[C@@H](O)[C@H](O)CC[C@@H](O)C[C@@H](O)CC(=O)O[C@H]1C)C[C@H](O)[C@H]2C(=O)O` [AMPHOTERICIN B], the MIC with Staphylococcus aureus and with Escherichia coli was 0.4 µg/mL throughout.
For H-KLLKHKLLVTLR-OH, the MIC in the data set with Staphylococcus aureus is 12.5 µg/mL; with Escherichia coli it was 50 µg/mL; with Candida albicans, more than 200 µg/mL. The Activity entry (in data set [7]; in the data set with HEK293 [8]) was “Non-Toxic” in each case.
For H-KLLKRKLLVTLR-OH, the MIC was 6.25 µg/mL in the data set on Staphylococcus aureus, 25 µg/mL in the data set on Escherichia coli and more than 200 µg/mL with Candida albicans. Also, the Activity entry (in data set [7]; in the data set with HEK293 [8]) was “Non-Toxic” each time.
In the case of H-KLLKRKLLVLLR-OH, the MIC was 3 µg/mL with Staphylococcus aureus, 12.5 µg/mL with Escherichia coli and more than 200 µg/mL in the data set with Candida albicans.
`OC(Cn1cncn1)(Cn1cncn1)c1ccc(F)cc1F` [FLUCONAZOLE]: in the data set on Candida albicans, the MIC turned out to be 12.5 µg/mL.
